Our source for the IC50, Vmax and Km values is ChEMBL document CHEMBL4673324, “Xanthones for melanogenesis inhibition: Molecular docking and QSAR studies to understand their anti-tyrosinase activity” (Bioorg Med Chem, 2021).

Broadly, the IC50 is the concentration that inhibits the measured activity by half. A low value points to inhibition by little substance. By Km is commonly meant the concentration of substrate that gives half-maximal velocity.

One series addresses Mushroom tyrosinase (Agaricus bisporus, UniProt O42713+Q00024+C7FF04+C7FF05). Put plainly: Inhibition of mushroom tyrosinase using tyrosine as substrate incubated for 20 mins followed by substrate addition and measured every 10 mins for 30 mins.
Series [1] in a line: Inhibition of Elastase (unknown origin) using N-methoxysuccinyl-Ala-Ala-Pro-Val-p-nitroanilide as substrate incubated for 20 mins followed by substrate addition and measured after 40 mins. Details: species or system Homo sapiens.
Compound in series [2]: Cc1cc(O)c(O)c2oc3cc(O)ccc3c(=O)c12
Put plainly: Uncompetitive inhibition of Tyrosinase (unknown origin) assessed as maximal velocity at 13.2 uM using tyrosine as substrate incubated for 20 mins followed by substrate addition and measured every 10 mins for 30 mins by Lineweaver-Burk plot analysis (reference value: […] +/- […] /min). The note with it: Homo sapiens, time 50.0 min.

Compound in series [3]: Cc1cc(O)c(O)c2oc3cc(O)ccc3c(=O)c12
Put plainly: Uncompetitive inhibition of Tyrosinase (unknown origin) assessed as Michaelis-Menten constant at 6.6 uM using tyrosine as substrate incubated for 20 mins followed by substrate addition and measured every 10 mins for 30 mins by Lineweaver-Burk plot analysis (reference value: […] +/- […] mM). Conditions: Homo sapiens, time 50.0 min.

Compound in series [4]: COc1cc(C)c2c(=O)c3ccccc3oc2c1OC
Put plainly: Uncompetitive inhibition of Tyrosinase (unknown origin) assessed as maximal velocity at 8 uM using tyrosine as substrate incubated for 20 mins followed by substrate addition and measured every 10 mins for 30 mins by Lineweaver-Burk plot analysis (reference value: […] +/- […] /min). The note with it: Homo sapiens, time 50.0 min.

Compound in series [5]: Cc1cc(O)c(O)c2oc3cc(O)ccc3c(=O)c12
Put plainly: Uncompetitive inhibition of Tyrosinase (unknown origin) assessed as Michaelis-Menten constant at 3.3 uM using tyrosine as substrate incubated for 20 mins followed by substrate addition and measured every 10 mins for 30 mins by Lineweaver-Burk plot analysis (reference value: […] +/- […] mM). Conditions: Homo sapiens, time 50.0 min.

Compound in series [6]: COc1cc(C)c2c(=O)c3ccccc3oc2c1OC
Put plainly: Uncompetitive inhibition of Tyrosinase (unknown origin) assessed as maximal velocity at 4 uM using tyrosine as substrate incubated for 20 mins followed by substrate addition and measured every 10 mins for 30 mins by Lineweaver-Burk plot analysis (reference value: […] +/- […] /min). Conditions: Homo sapiens, time 50.0 min.

Compound in series [7]: Cc1cc(O)c(O)c2oc3cc(O)ccc3c(=O)c12
Put plainly: Uncompetitive inhibition of Tyrosinase (unknown origin) assessed as maximal velocity at 6.60 uM using tyrosine as substrate incubated for 20 mins followed by substrate addition and measured every 10 mins for 30 mins by Lineweaver-Burk plot analysis (reference value: […] +/- […] /min). The note with it: Homo sapiens; dose 6.6 µM, time 50.0 min.

Compound in series [8]: COc1cc(C)c2c(=O)c3ccccc3oc2c1OC
Put plainly: Uncompetitive inhibition of Tyrosinase (unknown origin) assessed as Michaelis-Menten constant at 16 uM using tyrosine as substrate incubated for 20 mins followed by substrate addition and measured every 10 mins for 30 mins by Lineweaver-Burk plot analysis (reference value: […] +/- […] mM). The note with it: Homo sapiens, time 50.0 min.

Compound in series [9]: COc1cc(C)c2c(=O)c3ccccc3oc2c1OC
Put plainly: Uncompetitive inhibition of Tyrosinase (unknown origin) assessed as Michaelis-Menten constant at 2 uM using tyrosine as substrate incubated for 20 mins followed by substrate addition and measured every 10 mins for 30 mins by Lineweaver-Burk plot analysis (reference value: […] +/- […] mM). Conditions: Homo sapiens, time 50.0 min.

Compound in series [10]: COc1cc(C)c2c(=O)c3ccccc3oc2c1OC
Put plainly: Uncompetitive inhibition of Tyrosinase (unknown origin) assessed as Michaelis-Menten constant at 4 uM using tyrosine as substrate incubated for 20 mins followed by substrate addition and measured every 10 mins for 30 mins by Lineweaver-Burk plot analysis (reference value: […] +/- […] mM). Conditions: Homo sapiens, time 50.0 min.

Compound in series [11]: Cc1cc(O)c(O)c2oc3cc(O)ccc3c(=O)c12
Put plainly: Uncompetitive inhibition of Tyrosinase (unknown origin) assessed as maximal velocity at 3.30 uM using tyrosine as substrate incubated for 20 mins followed by substrate addition and measured every 10 mins for 30 mins by Lineweaver-Burk plot analysis (reference value: […] +/- […] /min). The note with it: Homo sapiens; dose 3.3 µM, time 50.0 min.

Compound in series [12]: Cc1cc(O)c(O)c2oc3cc(O)ccc3c(=O)c12
Put plainly: Uncompetitive inhibition of Tyrosinase (unknown origin) assessed as Michaelis-Menten constant at 13.2 uM using tyrosine as substrate incubated for 20 mins followed by substrate addition and measured every 10 mins for 30 mins by Lineweaver-Burk plot analysis (reference value: […] +/- […] mM). Conditions: Homo sapiens, time 50.0 min.

Compound in series [13]: Cc1cc(O)c(O)c2oc3cc(O)ccc3c(=O)c12
Put plainly: Uncompetitive inhibition of Tyrosinase (unknown origin) assessed as maximal velocity at 1.65 uM using tyrosine as substrate incubated for 20 mins followed by substrate addition and measured every 10 mins for 30 mins by Lineweaver-Burk plot analysis (reference value: […] +/- […] /min). The note with it: Homo sapiens, time 50.0 min.

Compound in series [14]: Cc1cc(O)c(O)c2oc3cc(O)ccc3c(=O)c12
Put plainly: Uncompetitive inhibition of Tyrosinase (unknown origin) assessed as Michaelis-Menten constant at 1.65 uM using tyrosine as substrate incubated for 20 mins followed by substrate addition and measured every 10 mins for 30 mins by Lineweaver-Burk plot analysis (reference value: […] +/- […] mM). The note with it: Homo sapiens, time 50.0 min.

Compound in series [15]: COc1cc(C)c2c(=O)c3ccccc3oc2c1OC
Put plainly: Uncompetitive inhibition of Tyrosinase (unknown origin) assessed as maximal velocity at 2 uM using tyrosine as substrate incubated for 20 mins followed by substrate addition and measured every 10 mins for 30 mins by Lineweaver-Burk plot analysis (reference value: […] +/- […] /min). The note with it: Homo sapiens, time 50.0 min.

Compound in series [16]: COc1cc(C)c2c(=O)c3ccccc3oc2c1OC
Put plainly: Uncompetitive inhibition of Tyrosinase (unknown origin) assessed as maximal velocity at 16 uM using tyrosine as substrate incubated for 20 mins followed by substrate addition and measured every 10 mins for 30 mins by Lineweaver-Burk plot analysis (reference value: […] +/- […] /min). The note with it: Homo sapiens, time 50.0 min.

Compound in series [17]: COc1cc(C)c2c(=O)c3ccccc3oc2c1OC
Put plainly: Uncompetitive inhibition of Tyrosinase (unknown origin) assessed as Michaelis-Menten constant at 8 uM using tyrosine as substrate incubated for 20 mins followed by substrate addition and measured every 10 mins for 30 mins by Lineweaver-Burk plot analysis (reference value: […] +/- […] mM). The note with it: Homo sapiens, time 50.0 min.

On to `COc1ccc2c(=O)c3ccccc3oc2c1`, for which the IC50 against Mushroom tyrosinase was 5.14 µM.
At Mushroom tyrosinase, `COc1ccc2c(=O)c3ccccc3oc2c1OC` displayed an IC50 of 5.12 µM.
In turn, `O=c1c2ccccc2oc2cc(O)ccc12` gave an IC50 on Mushroom tyrosinase of 9.26 µM.
The molecule `COc1cc(C(Br)Br)c2c(=O)c3ccccc3oc2c1OC` registered an IC50 on Mushroom tyrosinase of 3.37 µM. Against the preceding molecule, the IC50 is about 2.7-fold lower.
Same read-out and setting: the figure for `COc1cc(C=O)c2c(=O)c3ccccc3oc2c1OC` is 29.13 µM; for `COc1cc(C)c2c(=O)c3ccccc3oc2c1OC` it is 2 µM; for `O=c1c2cc(O)ccc2oc2cccc(O)c12` it is 4.52 µM.
On the same count and under the same terms, the figure for `O=c1c2ccccc2oc2ccc(O)cc12` is 5.6 µM.
In turn, `O=c1c2ccccc2oc2c(O)cccc12` came in with an IC50 against Mushroom tyrosinase of 8.46 µM.
The molecule `COc1cc2oc3ccccc3c(=O)c2cc1OC` displayed an IC50 on Mushroom tyrosinase of 8.29 µM.
Regarding `O=c1c2ccc(O)cc2oc2cc(O)ccc12`, the IC50 in series [1] is 91.8 µM; at Mushroom tyrosinase it was 4.42 µM.
Turning to H-MAAPVCK-OH, the concentration for half-maximal inhibition (IC50) in [1] is 0.26 µM.
Take `O=c1c2ccccc2oc2ccccc12` [XANTHONE]: the half-inhibitory concentration (IC50) against Mushroom tyrosinase came out at 8.84 µM.
On the same count and under the same terms, in the case of `O=c1c2ccccc2oc2cc(O)c(O)cc12` it was 5.7 µM; in that of `O=Cc1cc(O)c(O)c2oc3ccccc3c(=O)c12`, 89.37 µM; in that of `O=c1c2ccccc2oc2ccc(O)c(O)c12`, 7.8 µM.
Still for that read-out and setting: the figure for `COc1ccc2oc3ccccc3c(=O)c2c1OC` is 4.02 µM; for `COc1ccc2c(=O)c3c(C)c(Cl)c(OC)c(OC)c3oc2c1` it is 1.9 µM; for `Cc1cc(O)c(O)c2oc3cc(O)ccc3c(=O)c12` it is 3.28 µM.
The molecule `COc1c(O)cc2oc3ccccc3c(=O)c2c1O` came in with an IC50 at Mushroom tyrosinase of 3.01 µM.
The molecule `COc1ccc2c(=O)c3ccccc3oc2c1O` gave an IC50 on Mushroom tyrosinase of 5.2 µM.
Take `COc1cccc2c(=O)c3ccccc3oc12`: the IC50 on Mushroom tyrosinase was determined as 5.33 µM.
Still for that read-out and setting: in the case of `COc1c(O)ccc2c(=O)c3ccccc3oc12` it was 3.81 µM; in that of `COc1cc(C=O)c2c(=O)c3ccc(O)cc3oc2c1OC`, 3.16 µM; in that of `O=c1c2ccccc2oc2c(O)c(O)ccc12` [3,4-DIHYDROXYXANTHONE], 5.12 µM.
The same measure, in the same setting: in the case of `COc1cccc2oc3ccccc3c(=O)c12` it was 5.14 µM; in that of `COc1ccc2c(=O)c3c(C)c(Br)c(OC)c(OC)c3oc2c1`, 5.57 µM; in that of `COc1ccc2oc3ccccc3c(=O)c2c1`, 8.47 µM.
For `COc1ccc2c(=O)c3c(C)cc(OC)c(OC)c3oc2c1`, the IC50 on Mushroom tyrosinase was 2.24 µM.
Still for that read-out and setting: in the case of `Cc1cc(O)c(O)c2oc3ccccc3c(=O)c12` it was 8.93 µM.

B1: Tyrosinase (Homo sapiens), P14679 (protein)
chain: MLLAVLYCLLWSFQTSAGHFPRACVSSKNLMEKECCPPWSGDRSPCGQLSGRGSCQNILLSNAPLGPQFPFTGVDDRESWPSVFYNRTCQCSGNFMGFNCGNCKFGFWGPNCTERRLLVRRNIFDLSAPEKDKFFAYLTLAKHTISSDYVIPIGTYGQMKNGSTPMFNDINIYDLFVWMHYYVSMDALLGGSEIWRDIDFAHEAPAFLPWHRLFLLRWEQEIQKLTGDENFTIPYWDWRDAEKCDICTDEYMGGQHPTNPNLLSPASFFSSWQIVCSRLEEYNSHQSLCNGTPEGPLRRNPGNHDKSRTPRLPSSADVEFCLSLTQYESGSMDKAANFSFRNTLEGFASPLTGIADASQSSMHNALHIYMNGTMSQVQGSANDPIFLLHHAFVDSIFEQWLRRHRPLQEVYPEANAPIGHNRESYMVPFIPLYRNGDFFISSKDLGYDYSYLQDSDPDSFQDYIKSYLEQASRIWSWLLGAAMVGAVLTALLAGLVSLLCRHKRKQLPEEKQPLLMEKEDYHSLYQSHL
With B1, the Vmax in [2] was found to be 0.0028 min⁻¹; in series [4], 0.0025 min⁻¹; in series [6], 0.0031 min⁻¹; in [7] it was 0.0032 min⁻¹; in series [11], 0.0035 min⁻¹; in series [13], 0.0037 min⁻¹. In addition, the Vmax came out at 0.0036 min⁻¹ in series [15] and 0.0019 min⁻¹ in series [16]. The Km in series [3] worked out at 46 µM; in [5] it was 51 µM; in series [8], 26 µM; in [9], 53 µM; in [10], 41 µM; in series [12], 28 µM. The Km in series [14] is 63 µM; in [17] it was 27 µM.
